Two compounds from patent publication US20220152085A1, “COMBINATION IMMUNOREGULATION AND USES THEREOF” (Ohio State Innovation Foundation, priority 2019, published 2022) can be followed below.

This test relates to E.G7-OVA cells. Put plainly: Endocytic pathways: cellular uptake of PL1-Alexa-Fluor 647-labeled RNA nanoparticles with endocytic inhibitors, flow cytometry. In kind it is cell-based. The settings on record: inhibitor 0.5 h before nanoparticles, flow cytometry after 3 h, FIG. 13. The protocol:
E.G7-OVA cells were treated with 5-(N-Methyl-N-isopropyl)amiloride (EIPA), chlorpromazine hydrochloride (CPZ), or methyl-β-cyclodextrin (MβCD). After 0.5 h, cells were treated with PL1-Alexa-Fluor 647-labeled RNA nanoparticles. After 3 h, cells were analyzed by flow cytometry. All data are from n=3 biologically independent samples and are presented as mean±S.E.M. Statistical significance was analyzed by the two-tailed Student's t-test. *P<0.05.
Biomimetic compounds, phospholipids and glycolipids, are composed of a biomimetic head (phosphate head or glyco head), an ionizable amino core, and multiple hydrophobic tails (FIG. 11). These phospholipid and glycolipid derivatives (PLs and GLs) were synthesized according to previously reported procedures. See, for example, WO/2019/027999. […] Following this synthetic route, PL1-18 and GL1-16 materials were synthesized (FIG. 4C), which were characterized by […] nuclear magnetic resonance (NMR) and mass spectroscopy (MS) (FIG. 4C). Next, PLs and GLs nanoparticles were formulated with firefly luciferase mRNA (FLuc mRNA), and were characterized according to size, surface charge, and mRNA encapsulation efficiency (FIGS. 12A-12C). […]

Where a name gives a salt, the structure may show the parent alone.

For the compound `CN(C)CCCN1c2ccccc2Sc2ccc(Cl)cc21` [CPZ, chlorpromazine hydrochloride], the “inhibition of cellular uptake of PL1 nanoparticles” value was found to be 56%. In the case of methyl-β-cyclodextrin [MβCD] it was 39%.
